Measurements taken from patent US20230295157A1, “3-(1H-IMIDAZOL-2-YL)-2,3,8,8A-TETRAHYDROINDOLIZIN-5(1H)-ONE DERIVATIVES USEFUL AS FACTOR XIA INHIBITORS” (JANSSEN PHARMACEUTICA NV, priority 2020, published 2023).
Read-outs that look alike come from different tables or passages of the source.

Columns and labels:
human plasma kallikrein = human plasma kallikrein (Homo sapiens (Human), UniProt P03952); test: Kallikrein inhibition assay (FLINT) utilizing a quenched AMC peptide substrate; assay type: biochemical; conditions: 30 min preincubation, read-out: Kallikrein Kin Inh IC50
Chain of human plasma kallikrein (P03952 391-638): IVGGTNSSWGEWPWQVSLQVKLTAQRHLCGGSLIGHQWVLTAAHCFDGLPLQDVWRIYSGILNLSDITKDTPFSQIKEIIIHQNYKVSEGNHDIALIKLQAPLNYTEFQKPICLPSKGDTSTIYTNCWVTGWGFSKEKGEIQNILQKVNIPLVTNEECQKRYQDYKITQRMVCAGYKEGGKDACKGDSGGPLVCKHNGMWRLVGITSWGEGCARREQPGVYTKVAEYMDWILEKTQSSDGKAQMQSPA
Chain of human plasma kallikrein (P03952 20-390 partner): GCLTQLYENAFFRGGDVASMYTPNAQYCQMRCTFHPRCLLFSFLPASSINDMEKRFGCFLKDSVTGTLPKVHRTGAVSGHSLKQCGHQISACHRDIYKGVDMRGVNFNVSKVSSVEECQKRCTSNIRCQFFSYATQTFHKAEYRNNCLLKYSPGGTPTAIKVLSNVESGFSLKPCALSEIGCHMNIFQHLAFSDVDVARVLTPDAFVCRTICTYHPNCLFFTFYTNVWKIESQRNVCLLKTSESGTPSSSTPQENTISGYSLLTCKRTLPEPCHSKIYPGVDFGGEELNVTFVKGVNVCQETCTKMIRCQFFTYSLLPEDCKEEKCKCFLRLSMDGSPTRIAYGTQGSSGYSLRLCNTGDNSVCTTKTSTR
Outline: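 Fluorogenic Z-Gly-Pro-Arg-AMC cleavage (50 μM substrate, 2 nM kallikrein, Tris pH 7.5, CaCl2, BSA, CHAPS, 2% DMSO) read kinetically at 340/440 nm for 30 min after 30-min compound pre-incubation. Compounds in 11-point 3-fold series from 1 μM; percent inhibition fitted to four-parameter equation for IC50.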

Factor XIa = Factor XIa (Homo sapiens (Human), UniProt P03951); test: Factor XIa inhibition assay (FLINT) utilizing a fluorophore-quencher pair peptide substrate; assay type: biochemical; conditions: 30 min preincubation, kinetic reads over 30 min, read-out: FXIa Kin Inh IC50
Chain of Factor XIa (P03951 388-625): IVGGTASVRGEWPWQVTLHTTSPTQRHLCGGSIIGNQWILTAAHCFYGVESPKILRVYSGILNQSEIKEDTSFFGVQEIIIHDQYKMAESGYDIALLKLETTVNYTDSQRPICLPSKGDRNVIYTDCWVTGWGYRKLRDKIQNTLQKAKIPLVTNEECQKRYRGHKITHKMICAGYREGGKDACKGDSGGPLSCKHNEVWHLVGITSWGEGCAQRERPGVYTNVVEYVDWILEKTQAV
Chain of Factor XIa (P03951 19-387 partner): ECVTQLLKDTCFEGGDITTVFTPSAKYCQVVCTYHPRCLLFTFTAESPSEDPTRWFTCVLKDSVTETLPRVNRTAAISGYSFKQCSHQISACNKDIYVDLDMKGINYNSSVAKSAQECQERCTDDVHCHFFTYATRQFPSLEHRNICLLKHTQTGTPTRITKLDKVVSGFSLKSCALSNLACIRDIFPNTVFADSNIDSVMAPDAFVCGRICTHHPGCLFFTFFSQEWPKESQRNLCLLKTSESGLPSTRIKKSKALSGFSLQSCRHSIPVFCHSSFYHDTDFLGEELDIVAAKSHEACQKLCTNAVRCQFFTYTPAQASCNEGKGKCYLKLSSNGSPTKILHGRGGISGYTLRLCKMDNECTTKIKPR
Outline: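 FXIa ([…]) preincubated 30 min with compound (11-point 3-fold dilution, top 100 nM, 2% DMSO), then 15 μM quenched FXI Arg146-based peptide added; Tris pH 7.5, CaCl2, BSA, CHAPS. Fluorescence 485/520 nm read kinetically every 5 min over 30 min at RT; IC50 by 4-parameter fit.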

[1] = kinetic reads over 30 min, Z-Gly-Pro-Arg-AMC substrate 50 μM
[2] = 5Fam-[…]-K5Tamra substrate 15 μM
[3] = 5Fam-KLTRAETV-K5Tamra substrate 15 μM

Compound | IC50 (human plasma kallikrein; [1]) | IC50 (Factor XIa; [2]) | IC50 (human plasma kallikrein; μM, kinetic reads) | IC50 (Factor XIa; [3])
Nc1ccc(-c2cnc([C@@H]3CC[C@@H]4CC(c5cc(Cl)ccc5-n5cnnn5)=CC(=O)N43)[nH]2)c(F)n1 (single isomer, unassigned) [Example 120, (3*S,8aR)-3-(5-(6-amino-2-fluoropyridin-3-yl-5-d)-1H-imidazol-2-yl)-7-(5-chloro-2-(1H-tetrazol-1-yl)phenyl-3-d)-2,3,8,8a-tetrahydroindolizin-5(1H)-one] | 0.0677 µM |  |  | 4.5 nM
Cn1cc(-c2ccccc2NC(=O)C2CC2)nc1[C@@H]1CC[C@H]2CC(c3c(-n4cnnn4)ccc(Cl)c3F)=CC(=O)N21 (relative stereo) [Example 304, N-(2-(2-((3S,8aS*)-7-(3-Chloro-2-fluoro-6-(1H-tetrazol-1-yl)phenyl)-5-oxo-1,2,3,5,8,8a-hexahydroindolizin-3-yl)-1-methyl-1H-imidazol-4-yl)phenyl)cyclopropanecarboxamide] | 0.323 µM | > 100 nM |  | 
NC(=O)c1ccc(-c2nc([C@@H]3CC[C@@H]4CC(c5c(-n6cnnn6)ccc(Cl)c5F)=CC(=O)N43)[nH]c2Cl)s1 [Example 211, 5-(5-Chloro-2-((3S,8aR)-7-(3-chloro-2-fluoro-6-(1H-tetrazol-1-yl)phenyl)-5-oxo-1,2,3,5,8,8a-hexahydroindolizin-3-yl)-1H-imidazol-4-yl)thiophene-2-carboxamide] | 0.0008 µM | 0.2 nM |  | 
O=C1C=C(c2c(-n3cnnn3)ccc(Cl)c2F)C[C@H]2CC[C@@H](c3nc(-c4ccnc5[nH]ncc45)c[nH]3)N12 [Example 38, (3S,8aR)-3-(4-(1H-pyrazolo[3,4-b]pyridin-4-yl)-1H-imidazol-2-yl)-7-(3-chloro-2-fluoro-6-(1H-tetrazol-1-yl)phenyl)-2,3,8,8a-tetrahydroindolizin-5(1H)-one] | 0.0026 µM |  |  | 2.1 nM
O=C1C=C(c2c(-n3cnnn3)ccc(Cl)c2F)C[C@H]2CC[C@H](c3ncc(-c4c[nH]nc4C(F)(F)F)[nH]3)N12 (single isomer, unassigned) [Example 239, (3*R,8a*R)-7-(3-Chloro-2-fluoro-6-(1H-tetrazol-1-yl)phenyl)-3-(5-(3-(trifluoromethyl)-1H-pyrazol-4-yl)-1H-imidazol-2-yl)-2,3,8,8a-tetrahydroindolizin-5(1H)-one] | 0.0159 µM |  |  | 1.5 nM
CS(=O)(=O)NC(=O)c1sc(-c2c[nH]c(C3CC[C@@H]4CC(c5c(-n6cc(C(F)(F)F)nn6)ccc(Cl)c5F)=CC(=O)N34)n2)cc1F (stereo partly drawn) [Example 192, 5-(2-((8aR)-7-(3-chloro-2-fluoro-6-(4-(trifluoromethyl)-1H-1,2,3-triazol-1-yl)phenyl)-5-oxo-1,2,3,5,8,8a-hexahydroindolizin-3-yl)-1H-imidazol-4-yl)-3-fluoro-N-(methylsulfonyl)thiophene-2-carboxamide] | 0.0295 µM | 5.4 nM |  | 
O=C1C=C(c2c(-n3cnnn3)ccc(Cl)c2F)C[C@H]2CC[C@@H](c3ncc(-c4ccnc(CO)c4F)[nH]3)N12 (single isomer, unassigned) [Example 194, (3*S,8a*R)-7-(3-chloro-2-fluoro-6-(1H-tetrazol-1-yl)phenyl)-3-(4-(3-fluoro-2-(hydroxymethyl-d2)pyridin-4-yl)-1H-imidazol-2-yl)-2,3,8,8a-tetrahydroindolizin-5(1H)-one] | 0.0168 µM |  |  | 2.2 nM
O=C1C=C(c2c(-n3cnnn3)ccc(Cl)c2F)C[C@H]2CC[C@H](c3ncc(-c4ccnc(-n5ccnn5)c4F)[nH]3)N12 (single isomer, unassigned) [Example 71, (3R*,8aR)-7-(3-chloro-2-fluoro-6-(1H-tetrazol-1-yl)phenyl)-3-(5-(3-fluoro-2-(1H-1,2,3-triazol-1-yl)pyridin-4-yl)-1H-imidazol-2-yl)-2,3,8,8a-tetrahydroindolizin-5(1H)-one] | 0.0194 µM | 13.8 nM |  | 
CC1C[C@@H](c2ncc(-c3ccc(N)nc3Cl)[nH]2)N2C(=O)C=C(c3c(-n4cnnn4)ccc(Cl)c3F)CC12 (stereo partly drawn) [Example 347, (3S)-3-(5-(6-Amino-2-chloropyridin-3-yl)-1H-imidazol-2-yl)-7-(3-chloro-2-fluoro-6-(1H-tetrazol-1-yl)phenyl)-1-methyl-2,3,8,8a-tetrahydroindolizin-5(1H)-one] | 0.0055 µM |  |  | 0.6 nM
[2H]C([2H])(O)c1nccc(-c2cnc([C@@H]3CCC4CC(c5c(-n6cnnn6)ccc(Cl)c5F)=CC(=O)N43)[nH]2)c1Cl (stereo partly drawn) [Example 189, (3S)-3-(5-(3-chloro-2-(hydroxymethyl-d2)pyridin-4-yl)-1H-imidazol-2-yl)-7-(3-chloro-2-fluoro-6-(1H-tetrazol-1-yl)phenyl)-2,3,8,8a-tetrahydroindolizin-5(1H)-one] | 0.0167 µM | 1.8 nM |  | 
COC(=O)Nc1ccccc1-c1cnc([C@@H]2CC[C@H]3CC(c4c(-n5cnnn5)ccc(Cl)c4F)=CC(=O)N32)[nH]1 (relative stereo) [Example 302, Methyl 2-(24(3S,8aS*)-7-(3-chloro-2-fluoro-6-(1H-tetrazol-1-yl)phenyl)-5-oxo-1,2,3,5,8,8a-hexahydroindolizin-3-yl)-1H-imidazol-4-yl)phenylcarbamate] | 0.0291 µM | 10.4 nM |  | 
CC1(C)C[C@@H](c2ncc(-c3ccc(N)nc3Cl)[nH]2)N2C(=O)C=C(c3c(-n4cnnn4)ccc(Cl)c3F)C[C@@H]21 (relative stereo) [Example 335, (3S,8aR)-3-(5-(6-Amino-2-chloropyridin-3-yl)-1H-imidazol-2-yl)-7-(3-chloro-2-fluoro-6-(1H-tetrazol-1-yl)phenyl)-1,1-dimethyl-2,3,8,8a-tetrahydroindolizin-5(1H)-one] | 0.0227 µM | 5.7 nM |  | 
O=C1C=C(c2c(-n3cnnn3)ccc(Cl)c2F)CC2CC[C@@H](c3ncc(-c4ccc5[nH]c(=O)ncc5c4)[nH]3)N12 (stereo partly drawn) [Example 273, 6-(2-((3S)-7-(3-Chloro-2-fluoro-6-(1H-tetrazol-1-yl)phenyl)-5-oxo-1,2,3,5,8,8a-hexahydroindolizin-3-yl)-1H-imidazol-5-yl)quinazolin-2(1H)-one] | 0.002 µM |  |  | 0.5 nM
O=C(Nc1cnc(C(F)(F)F)cc1-c1cnc([C@@H]2CC[C@@H]3CC(c4c(-n5cnnn5)ccc(Cl)c4F)=CC(=O)N32)[nH]1)C1CC1 [Example 241, N-[4-[2-[(3S,8aR)-7-[3-Chloro-2-fluoro-6-(tetrazol-1-yl)phenyl]-5-oxo-2,3,8,8a-tetrahydro-1H-indolizin-3-yl]-1H-imidazol-5-yl]-6-(trifluoromethyl)-3-pyridyl]cyclopropanecarboxamide] | 0.0149 µM |  |  | 3.3 nM

More lines, now with the values ahead:

IC50 (human plasma kallikrein; [1]) | IC50 (Factor XIa; [2]) | IC50 (human plasma kallikrein; μM, kinetic reads) | IC50 (Factor XIa; [3]) | Compound
0.0479 µM | 9.3 nM |  |  | CC1(C)C[C@@H](c2ncc(-c3ccc(N)nc3F)[nH]2)N2C(=O)C=C(c3c(-n4cnnn4)ccc(Cl)c3F)C[C@@H]21 (relative stereo) [Example 336, (3S,8aR)-3-(5-(6-Amino-2-fluoropyridin-3-yl)-1H-imidazol-2-yl)-7-(3-chloro-2-fluoro-6-(1H-tetrazol-1-yl)phenyl)-1,1-dimethyl-2,3,8,8a-tetrahydroindolizin-5(1H)-one]
 |  | 2.3 µM | 64.1 nM | Nc1ccc(-c2cnc([C@H]3CC[C@H]4CC(c5c(-n6cnnn6)ccc(Cl)c5F)=CC(=O)N43)[nH]2)c(F)n1 [Example 357, (3R,8aS)-3-(5-(6-Amino-2-fluoropyridin-3-yl)-1H-imidazol-2-yl)-7-(3-chloro-2-fluoro-6-(1H-tetrazol-1-yl)phenyl)-2,3,8,8a-tetrahydroindolizin-5(1H)-one]
0.002 µM | 1.4 nM |  |  | Cn1c(=O)[nH]c2ccc(-c3cnc([C@@H]4CC[C@@H]5CC(c6c(-n7cnnn7)ccc(Cl)c6F)=CC(=O)N54)[nH]3)cc21 (relative stereo) [Example 300, 6-(2-((3S,8aR*)-7-(3-Chloro-2-fluoro-6-(1H-tetrazol-1-yl)phenyl)-5-oxo-1,2,3,5,8,8a-hexahydroindolizin-3-yl)-1H-imidazol-5-yl)-1-methyl-1H-benzo[d]imidazol-2(3H)-one]
0.197 µM |  |  | 39.4 nM | NC(=O)c1ccc(-c2cnc([C@@H]3CC[C@H]4CC(c5c(-n6cc(C(F)(F)F)nn6)ccc(Cl)c5F)=CC(=O)N43)[nH]2)cn1 (single isomer, unassigned) [Example 213]
0.0122 µM |  |  | 7.5 nM | CC(C)(CO)Nc1nccc(-c2cnc([C@@H]3CC[C@@H]4CC(c5cc(Cl)ccc5-n5cnnn5)=CC(=O)N43)[nH]2)c1F [Example 79, (3S,8aR)-7-[5-chloro-2-(tetrazol-1-yl)phenyl]-3-[5-[3-fluoro-2-[(2-hydroxy-1,1-dimethyl-ethyl)amino]-4-pyridyl]-1H-imidazol-2-yl]-2,3,8,8a-tetrahydro-1H-indolizin-5-one]
0.0326 µM |  |  | 4.5 nM | O=C1C=C(c2c(-n3cnnn3)ccc(Cl)c2F)C[C@H]2CC[C@@H](c3ncc(-c4c[nH]nc4F)[nH]3)N12 [Example 217, (3S,8aR)-7-(3-Chloro-2-fluoro-6-(1H-tetrazol-1-yl)phenyl)-3-(5-(3-fluoro-1H-pyrazol-4-yl)-1H-imidazol-2-yl)-2,3,8,8a-tetrahydroindolizin-5(1H)-one]
0.0559 µM |  |  | 9.4 nM | O=C1OCCN1c1nccc(-c2cnc([C@@H]3CC[C@@H]4CC(c5c(-n6cnnn6)ccc(Cl)c5F)=CC(=O)N43)[nH]2)c1F [Example 114, 3-[4-[2-[(3S,8aR)-7-[3-chloro-2-fluoro-6-(tetrazol-1-yl)phenyl]-5-oxo-2,3,8,8a-tetrahydro-1H-indolizin-3-yl]-1H-imidazol-5-yl]-3-fluoro-2-pyridyl]oxazolidin-2-one]
